Literature values as cited in US6224863A, “Antibiotic composition from alcaligenes species and method for making and using the same” (University of South Carolina, priority 1998, dated 2001).

Experiments:
S. epidermidis = conditions: strains of S. epidermidis
Staphylococcus aureus = conditions: strains of Staphylococcus aureus

Row | SMILES | antibiotic activity (Vibrio harveyi) | antibacterial activity (S. epidermidis) | antibacterial activity (Staphylococcus aureus) | antibiotic activity (other marine bacteria)
1 | CCCCCc1cc(O)c2ccccc2n1 [2-n-pentylquinolinol] | exhibits activity | – | – | –
2 | C=C(CC/C=C\C=C\CC(C)CC(=O)CC(O)CNC(=O)CC(C)OC(N)=O)CC(C)C/C(C)=C/C(=O)O (centres unmarked) [kalimantacin C] | – | only effective | only effective | –
3 | C=C(CC/C=C/C=C/CC(C)CC(=O)CC(O)CNC(=O)C(C)C(C)OC(N)=O)CC(C)C/C(C)=C/C(=O)O (centres unmarked) [kalimantacin B] | – | only effective | only effective | –
4 | C=C(CC/C=C\C=C\CC(C)CC(=O)CC(O)CNC(=O)C(C)C(C)OC(N)=O)CC(C)C/C(C)=C/C(=O)O (centres unmarked) [kalimantacin A] | – | only effective | only effective | –
5 | Brc1[nH]c(Br)c(Br)c1Br [tetrabromopyrrole] | – | – | – | effective against other marine bacteria
